In ChEMBL document CHEMBL1201861, “Genomics of Drug Sensitity in Cancer screening data, Wellcome Trust Sanger Institute”:

Key:
NCI-H2141 = assay: cells; assay type: functional, cell-based; conditions: Homo sapiens;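 note: growth inhibition of human NCI-H2141 cells, read out with a cell viability assay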
Description: SANGER: Inhibition of human NCI-H2141 cell growth in a cell viability assay.

NCI-H1522 = assay: cells; assay type: functional, cell-based; conditions: Homo sapiens;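 note: growth inhibition of NCI-H1522 cells, read out with a cell viability assay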
Description: SANGER: Inhibition of human NCI-H1522 cell growth in a cell viability assay.

CPC-N = assay: cells; assay type: functional, cell-based; conditions: Homo sapiens;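 note: growth inhibition of CPC-N cells, with a cell viability assay as the readout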
Description: SANGER: Inhibition of human CPC-N cell growth in a cell viability assay.

NCI-H1417 = assay: cells; assay type: functional, cell-based; conditions: Homo sapiens;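 note: human NCI-H1417 cells, growth inhibition determined with a cell viability readout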
Description: SANGER: Inhibition of human NCI-H1417 cell growth in a cell viability assay.

EVSA-T = assay: cells; assay type: functional, cell-based; conditions: Homo sapiens;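 note: growth inhibition of EVSA-T cells, read out with a cell viability assay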
Description: SANGER: Inhibition of human EVSA-T cell growth in a cell viability assay.

MRK-nu-1 = assay: cells; assay type: functional, cell-based; conditions: Homo sapiens;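 note: cell viability assay measuring growth suppression of human MRK-nu-1 cells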
Description: SANGER: Inhibition of human MRK-nu-1 cell growth in a cell viability assay.

ARH-77 = assay: cells; assay type: functional, cell-based; conditions: Homo sapiens;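 note: growth inhibition of ARH-77 cells, read out by a cell viability assay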
Description: SANGER: Inhibition of human ARH-77 cell growth in a cell viability assay.

NCI-H1882 = assay: cells; assay type: functional, cell-based; conditions: Homo sapiens;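 note: growth inhibition of the cell line, determined with a viability assay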
Description: SANGER: Inhibition of human NCI-H1882 cell growth in a cell viability assay.

HCC2157 = assay: cells; assay type: functional, cell-based; conditions: Homo sapiens;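 note: growth inhibition of the cancer cell line, read out as cell viability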
Description: SANGER: Inhibition of human HCC2157 cell growth in a cell viability assay.

SIG-M5 = assay: cells; assay type: functional, cell-based; conditions: Homo sapiens;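 note: cell viability assay read-out, measuring how strongly growth of cultured human SIG-M5 cells is inhibited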
Description: SANGER: Inhibition of human SIG-M5 cell growth in a cell viability assay.

RL95-2 = assay: cells; assay type: functional, cell-based; conditions: Homo sapiens;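 note: RL95-2 growth inhibition determined through a cell viability readout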
Description: SANGER: Inhibition of human RL95-2 cell growth in a cell viability assay.

P31-FUJ = assay: cells; assay type: functional, cell-based; conditions: Homo sapiens;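 note: growth inhibition of P31-FUJ cells, read out with a viability assay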
Description: SANGER: Inhibition of human P31-FUJ cell growth in a cell viability assay.

TALL-1 = assay: cells; assay type: functional, cell-based; conditions: Homo sapiens;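 note: growth inhibition of cultured human TALL-1 cells, read out by a cell viability assay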
Description: SANGER: Inhibition of human TALL-1 cell growth in a cell viability assay.

NCI-H187 = assay: cells; assay type: functional, cell-based; conditions: Homo sapiens;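 note: growth inhibition of NCI-H187 cells, read out as cell viability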
Description: SANGER: Inhibition of human NCI-H187 cell growth in a cell viability assay.

SU-DHL-1 = assay: SANGER: Inhibition of human SU-DHL-1 cell growth in a cell viability assay.; assay type: functional, cell-based
MDA-MB-134-VI = assay: cells; assay type: functional, cell-based; conditions: Homo sapiens
Description: SANGER: Inhibition of human MDA-MB-134-VI cell growth in a cell viability assay.

BL-41 = assay: cells; assay type: functional, cell-based; conditions: Homo sapiens;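 note: growth inhibition of human BL-41 cells, read out with a cell viability assay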
Description: SANGER: Inhibition of human BL-41 cell growth in a cell viability assay.

HuCCT-1 = assay: cells; assay type: functional, cell-based, HuCCT1; conditions: Homo sapiens;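 note: growth inhibition of HuCCT-1 cells, read out by a cell viability assay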
Description: SANGER: Inhibition of human HuCCT1 cell growth in a cell viability assay.

NCI-H2291 = assay: cells; assay type: functional, cell-based; conditions: Homo sapiens
Description: SANGER: Inhibition of human NCI-H2291 cell growth in a cell viability assay.

IGR-1 = assay: cells; assay type: functional, cell-based; conditions: Homo sapiens;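 note: growth inhibition of human IGR-1 cells, read out with a cell viability assay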
Description: SANGER: Inhibition of human IGR-1 cell growth in a cell viability assay.

DOK = assay: cells; assay type: functional, cell-based; conditions: Homo sapiens;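 note: cell viability assay read-out, values reflect inhibition of cell growth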
Description: SANGER: Inhibition of human DOK cell growth in a cell viability assay.

BT-549 = assay: cells; assay type: functional, cell-based; conditions: Homo sapiens
Description: SANGER: Inhibition of human BT-549 cell growth in a cell viability assay.

J82 = assay: cells; assay type: functional, cell-based; conditions: Homo sapiens;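 note: growth inhibition of J82 cells, read out with a cell viability assay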
Description: SANGER: Inhibition of human J82 cell growth in a cell viability assay.

SNU-423 = assay: cells; assay type: functional, cell-based; conditions: Homo sapiens
Description: SANGER: Inhibition of human SNU-423 cell growth in a cell viability assay.

HN = assay: cells; assay type: functional, cell-based; conditions: Homo sapiens
Description: SANGER: Inhibition of human HN cell growth in a cell viability assay.

SK-HEP1 = assay: cells; assay type: functional, cell-based, SK-HEP-1; conditions: Homo sapiens;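 note: cell viability readout used to quantify reduction in proliferation of human SK-HEP-1 cells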
Description: SANGER: Inhibition of human SK-HEP-1 cell growth in a cell viability assay.

C-33-A = assay: cells; assay type: functional, cell-based; conditions: Homo sapiens;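 note: cell viability assay measuring growth inhibition of C-33-A cells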
Description: SANGER: Inhibition of human C-33-A cell growth in a cell viability assay.

TCC-SUP = assay: cells; assay type: functional, cell-based; conditions: Homo sapiens;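 note: growth inhibition of TCC-SUP cells, read out with a cell viability assay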
Description: SANGER: Inhibition of human TCCSUP cell growth in a cell viability assay.

NCI-H650 = assay: cells; assay type: functional, cell-based; conditions: Homo sapiens;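 note: growth inhibition of NCI-H650 cells, read out by a viability assay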
Description: SANGER: Inhibition of human NCI-H650 cell growth in a cell viability assay.

G-401 = assay: cells; assay type: functional, cell-based; conditions: Homo sapiens
Description: SANGER: Inhibition of human G-401 cell growth in a cell viability assay.

MDA-MB-415 = assay: cells; assay type: functional, cell-based; conditions: Homo sapiens
SW-620 = assay: cells; assay type: functional, cell-based; conditions: Homo sapiens;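 note: growth inhibition of human SW-620 cells, measured by a cell viability assay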
Description: SANGER: Inhibition of human SW620 cell growth in a cell viability assay.

RD = assay: cells; assay type: functional, cell-based; conditions: Homo sapiens
Description: SANGER: Inhibition of human RD cell growth in a cell viability assay.

GMS-10 = assay: cells; assay type: functional, cell-based; conditions: Homo sapiens;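 note: growth inhibition of GMS-10 cells, read out as cell viability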
Description: SANGER: Inhibition of human GMS-10 cell growth in a cell viability assay.

CAL-33 = assay: cells; assay type: functional, cell-based; conditions: Homo sapiens;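 note: growth inhibition of CAL-33 cells, read out with a cell viability assay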
Description: SANGER: Inhibition of human CAL-33 cell growth in a cell viability assay.

HOP-92 = assay: cells; assay type: functional, cell-based; conditions: Homo sapiens;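 note: cell viability readout, with IC50 reflecting inhibition of HOP-92 cell growth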
Description: SANGER: Inhibition of human HOP-92 cell growth in a cell viability assay.

MIA PaCa-2 = assay: cells; assay type: functional, cell-based; conditions: Homo sapiens;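 note: growth inhibition of MIA PaCa-2 cells, read out with a cell viability assay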
Description: SANGER: Inhibition of human MIA-PaCa-2 cell growth in a cell viability assay.

NCI-H2030 = assay: cells; assay type: functional, cell-based; conditions: Homo sapiens;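 note: growth inhibition of human NCI-H2030 cells, read out by a cell viability assay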
Description: SANGER: Inhibition of human NCI-H2030 cell growth in a cell viability assay.

HCC1419 = assay: cells; assay type: functional, cell-based; conditions: Homo sapiens;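 note: growth inhibition of human HCC1419 cells, read out as cell viability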
Description: SANGER: Inhibition of human HCC1419 cell growth in a cell viability assay.

SNU-387 = assay: cells; assay type: functional, cell-based; conditions: Homo sapiens
Description: SANGER: Inhibition of human SNU-387 cell growth in a cell viability assay.

NCI-H1755 = assay: cells; assay type: functional, cell-based; conditions: Homo sapiens;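 note: cell viability readout used to measure growth inhibition of NCI-H1755 cells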
Description: SANGER: Inhibition of human NCI-H1755 cell growth in a cell viability assay.

RT-112 = assay: cells; assay type: functional, cell-based; conditions: Homo sapiens
Description: SANGER: Inhibition of human RT-112 cell growth in a cell viability assay.

NCI-H596 = assay: cells; assay type: functional, cell-based; conditions: Homo sapiens;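 note: growth inhibition of NCI-H596 cells, read out with a cell viability assay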
Description: SANGER: Inhibition of human NCI-H596 cell growth in a cell viability assay.

NCI-H1792 = assay: cells; assay type: functional, cell-based; conditions: Homo sapiens;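 note: growth inhibition of human NCI-H1792 cells, read out as cell viability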
Description: SANGER: Inhibition of human NCI-H1792 cell growth in a cell viability assay.

HTC-C3 = assay: cells; assay type: functional, cell-based; conditions: Homo sapiens;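 note: inhibition of cell growth, read out with a cell viability assay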
Description: SANGER: Inhibition of human HTC-C3 cell growth in a cell viability assay.

LU-135 = assay: cells; assay type: functional, cell-based; conditions: Homo sapiens
Description: SANGER: Inhibition of human LU-135 cell growth in a cell viability assay.

SW1088 = assay: cells; assay type: functional, cell-based; conditions: Homo sapiens;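 note: growth inhibition of human SW1088 cells, read out by a cell viability assay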
Description: SANGER: Inhibition of human SW1088 cell growth in a cell viability assay.

CAKI-1 = assay: cells; assay type: functional, cell-based; conditions: Homo sapiens;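 note: growth inhibition of CAKI-1 cells, measured by a cell viability assay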
Description: SANGER: Inhibition of human CAKI-1 cell growth in a cell viability assay.

SW1573 = assay: cells; assay type: functional, cell-based; conditions: Homo sapiens;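 note: growth inhibition of SW1573 cells, read out with a cell viability assay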
Description: SANGER: Inhibition of human SW1573 cell growth in a cell viability assay.

SW1417 = assay: cells; assay type: functional, cell-based; conditions: Homo sapiens;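 note: growth inhibition of human SW1417 cells, read out with a cell viability assay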
Description: SANGER: Inhibition of human SW1417 cell growth in a cell viability assay.

SK-MEL-30 = assay: cells; assay type: functional, cell-based; conditions: Homo sapiens;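 note: growth inhibition of SK-MEL-30 cells, determined with a cell viability assay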
Description: SANGER: Inhibition of human SK-MEL-30 cell growth in a cell viability assay.

HT55 = assay: cells; assay type: functional, cell-based; conditions: Homo sapiens;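 note: cell viability readout measuring growth inhibition of human HT55 cells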
Description: SANGER: Inhibition of human HT55 cell growth in a cell viability assay.

CAL-62 = assay: cells; assay type: functional, cell-based; conditions: Homo sapiens;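 note: growth inhibition of CAL-62 cells, read out with a cell viability assay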
Description: SANGER: Inhibition of human CAL-62 cell growth in a cell viability assay.

MEL-JUSO = assay: cells; assay type: functional, cell-based; conditions: Homo sapiens;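 note: growth inhibition of human MEL-JUSO cells, read out with a cell viability assay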
Description: SANGER: Inhibition of human MEL-JUSO cell growth in a cell viability assay.

CAL-54 = assay: cells; assay type: functional, cell-based; conditions: Homo sapiens;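 note: growth inhibition of CAL-54 cells, read out by a viability measurement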
Description: SANGER: Inhibition of human CAL-54 cell growth in a cell viability assay.

A 172 = assay: cells; assay type: functional, cell-based; conditions: Homo sapiens;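 note: growth inhibition of A172 cells, measured with a cell viability readout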
Description: SANGER: Inhibition of human A172 cell growth in a cell viability assay.

HT-29 = assay: cells; assay type: functional, cell-based; conditions: Homo sapiens;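 note: growth inhibition of human HT-29 cells, read out by a cell viability assay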
Description: SANGER: Inhibition of human HT-29 cell growth in a cell viability assay.

KOSC-2 = assay: cells; assay type: functional, cell-based; conditions: Homo sapiens;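 note: growth inhibition of KOSC-2 cells, read out by a cell viability assay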
Description: SANGER: Inhibition of human KOSC-2 cell growth in a cell viability assay.

NCI-H2405 = assay: cells; assay type: functional, cell-based; conditions: Homo sapiens;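 note: growth inhibition of the human cell line, read out with a cell viability assay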
Description: SANGER: Inhibition of human NCI-H2405 cell growth in a cell viability assay.

C3A = assay: cells; assay type: functional, cell-based; conditions: Homo sapiens;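 note: growth inhibition of C3A human cells, quantified with a cell viability readout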
Description: SANGER: Inhibition of human C3A cell growth in a cell viability assay.

ME-180 = assay: cells; assay type: functional, cell-based; conditions: Homo sapiens;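 note: cell viability assay measuring growth inhibition of ME-180 cells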
Description: SANGER: Inhibition of human ME-180 cell growth in a cell viability assay.

DU-145 = assay: cells; assay type: functional, cell-based; conditions: Homo sapiens
Description: SANGER: Inhibition of human DU-145 cell growth in a cell viability assay.

CCNc1cc(N[C@H]2CC[C@@H](O)CC2)nc(Nc2ccc3c(ccn3Cc3ccccc3)c2)n1
IC50 (NCI-H2141): > 5120 nM
IC50 (NCI-H1522): > 5120 nM
IC50 (CPC-N): > 5120 nM
IC50 (NCI-H1417): > 5120 nM
IC50 (EVSA-T): > 5120 nM
IC50 (MRK-nu-1): 3090 nM
IC50 (ARH-77): > 5120 nM
IC50 (NCI-H1882): > 5120 nM
IC50 (HCC2157): > 5120 nM
IC50 (SIG-M5): > 5120 nM
IC50 (RL95-2): 3200 nM
IC50 (P31-FUJ): > 5120 nM
IC50 (TALL-1): > 5120 nM
IC50 (NCI-H187): > 5120 nM
IC50 (SU-DHL-1): > 5120 nM
IC50 (MDA-MB-134-VI): > 5120 nM
IC50 (BL-41): > 5120 nM

O=c1cc(N2CCOCC2)oc2c(-c3cccc4c3sc3ccccc34)cccc12
IC50 (HuCCT-1): > 2000 nM
IC50 (NCI-H2291): > 2000 nM
IC50 (IGR-1): > 2000 nM
IC50 (DOK): > 2000 nM
IC50 (BT-549): > 2000 nM
IC50 (J82): > 2000 nM
IC50 (SNU-423): > 2000 nM
IC50 (HN): > 2000 nM
IC50 (SK-HEP1): > 2000 nM
IC50 (C-33-A): > 2000 nM
IC50 (TCC-SUP): > 2000 nM
IC50 (NCI-H650): > 2000 nM
IC50 (G-401): > 2000 nM
IC50 (MDA-MB-415): > 2000 nM
IC50 (SW-620): > 2000 nM
IC50 (RD): > 2000 nM
IC50 (GMS-10): > 2000 nM
IC50 (CAL-33): > 2000 nM
IC50 (HOP-92): > 2000 nM
IC50 (MIA PaCa-2): > 2000 nM
IC50 (NCI-H2030): > 2000 nM
IC50 (HCC1419): > 2000 nM
IC50 (SNU-387): > 2000 nM
IC50 (NCI-H1755): > 2000 nM
IC50 (RT-112): > 2000 nM
IC50 (NCI-H596): > 2000 nM
IC50 (HCC2157): > 2000 nM
IC50 (NCI-H1792): > 2000 nM
IC50 (HTC-C3): > 2000 nM
IC50 (LU-135): > 2000 nM
IC50 (SW1088): > 2000 nM
IC50 (CAKI-1): > 2000 nM
IC50 (SW1573): > 2000 nM
IC50 (SW1417): > 2000 nM
IC50 (SK-MEL-30): > 2000 nM
IC50 (HT55): > 2000 nM
IC50 (CAL-62): > 2000 nM
IC50 (MEL-JUSO): > 2000 nM
IC50 (CAL-54): > 2000 nM
IC50 (A 172): 153 nM
IC50 (HT-29): > 2000 nM
IC50 (KOSC-2): > 2000 nM
IC50 (NCI-H2405): > 2000 nM
IC50 (C3A): > 2000 nM
IC50 (ME-180): > 2000 nM
IC50 (DU-145): > 2000 nM

Cc1ccc(NC(=O)c2cccc(C(C)(C)C#N)c2)cc1Nc1ccc2ncn(C)c(=O)c2c1
IC50 (NCI-H2141): > 4000 nM
IC50 (NCI-H1522): > 4000 nM
IC50 (CPC-N): > 4000 nM
IC50 (NCI-H1417): > 4000 nM
IC50 (EVSA-T): > 4000 nM
IC50 (MRK-nu-1): > 4000 nM
IC50 (ARH-77): > 4000 nM
IC50 (NCI-H1882): > 4000 nM
IC50 (HCC2157): > 4000 nM
IC50 (SIG-M5): 9.45 nM
IC50 (RL95-2): > 4000 nM
IC50 (P31-FUJ): > 4000 nM
IC50 (TALL-1): > 4000 nM
IC50 (NCI-H187): > 4000 nM
IC50 (SU-DHL-1): 3530 nM
IC50 (MDA-MB-134-VI): > 4000 nM
IC50 (BL-41): > 4000 nM

CCCS(=O)(=O)Nc1ccc(F)c(C(=O)c2c[nH]c3ncc(Cl)cc23)c1F [PLX-4720]
IC50 (HuCCT-1): > 10000 nM
IC50 (NCI-H2291): > 10000 nM
IC50 (IGR-1): > 10000 nM
IC50 (DOK): > 10000 nM
IC50 (BT-549): > 10000 nM
IC50 (J82): > 10000 nM
IC50 (SNU-423): > 10000 nM
IC50 (HN): > 10000 nM
IC50 (SK-HEP1): > 10000 nM
IC50 (C-33-A): > 10000 nM
IC50 (TCC-SUP): > 10000 nM
IC50 (NCI-H650): > 10000 nM
IC50 (G-401): > 10000 nM
IC50 (MDA-MB-415): > 10000 nM
IC50 (SW-620): > 10000 nM
IC50 (RD): > 10000 nM
IC50 (GMS-10): > 10000 nM
IC50 (CAL-33): > 10000 nM
IC50 (HOP-92): > 10000 nM
IC50 (MIA PaCa-2): > 10000 nM
IC50 (NCI-H2030): > 10000 nM
IC50 (HCC1419): > 10000 nM
IC50 (SNU-387): > 10000 nM
IC50 (NCI-H1755): > 10000 nM
IC50 (RT-112): > 10000 nM
IC50 (NCI-H596): > 10000 nM
IC50 (HCC2157): > 10000 nM
IC50 (NCI-H1792): > 10000 nM
IC50 (HTC-C3): 1660 nM
IC50 (LU-135): > 10000 nM
IC50 (SW1088): > 10000 nM
IC50 (CAKI-1): > 10000 nM
IC50 (SW1573): > 10000 nM
IC50 (SW1417): > 10000 nM
IC50 (SK-MEL-30): 1330 nM
IC50 (HT55): > 10000 nM
IC50 (CAL-62): > 10000 nM
IC50 (MEL-JUSO): > 10000 nM
IC50 (CAL-54): > 10000 nM
IC50 (A 172): > 10000 nM
IC50 (HT-29): > 10000 nM
IC50 (KOSC-2): > 10000 nM
IC50 (NCI-H2405): > 10000 nM
IC50 (C3A): > 10000 nM
IC50 (ME-180): > 10000 nM
IC50 (DU-145): > 10000 nM

CC[C@]1(O)C[C@@H]2CN(CCc3c([nH]c4ccccc34)[C@@](C(=O)OC)(c3cc4c(cc3OC)N(C)[C@H]3[C@@](O)(C(=O)OC)[C@H](OC(C)=O)[C@]5(CC)C=CCN6CC[C@]43[C@@H]65)C2)C1 [VINBLASTINE]
IC50 (HuCCT-1): 17.3 nM
IC50 (NCI-H2291): > 100 nM
IC50 (IGR-1): 2.08 nM
IC50 (DOK): 4.2 nM
IC50 (BT-549): 7.98 nM
IC50 (J82): 68.5 nM
IC50 (SNU-423): 19.5 nM
IC50 (HN): 4.15 nM
IC50 (SK-HEP1): 12.1 nM
IC50 (C-33-A): 12.7 nM
IC50 (TCC-SUP): 23.6 nM
IC50 (NCI-H650): 27.1 nM
IC50 (G-401): 8.67 nM
IC50 (MDA-MB-415): 18.5 nM
IC50 (SW-620): 8.84 nM
IC50 (RD): 4.17 nM
IC50 (GMS-10): 11.3 nM
IC50 (CAL-33): 6.18 nM
IC50 (HOP-92): 25.9 nM
IC50 (MIA PaCa-2): 3.39 nM
IC50 (NCI-H2030): 27.7 nM
IC50 (HCC1419): 57.2 nM
IC50 (SNU-387): 11.4 nM
IC50 (NCI-H1755): 19.4 nM
IC50 (RT-112): 2.71 nM
IC50 (NCI-H596): > 100 nM
IC50 (NCI-H1792): 4.39 nM
IC50 (HTC-C3): 10.4 nM
IC50 (LU-135): 35.6 nM
IC50 (SW1088): 17 nM
IC50 (CAKI-1): 24.6 nM
IC50 (SW1573): 33.2 nM
IC50 (SW1417): > 100 nM
IC50 (SK-MEL-30): > 100 nM
IC50 (HT55): > 100 nM
IC50 (CAL-62): 10.1 nM
IC50 (MEL-JUSO): 17.5 nM
IC50 (CAL-54): 60.6 nM
IC50 (A 172): 9.62 nM
IC50 (HT-29): 45.9 nM
IC50 (KOSC-2): 0.698 nM
IC50 (NCI-H2405): > 100 nM
IC50 (C3A): > 100 nM
IC50 (ME-180): 4.47 nM
IC50 (DU-145): 98.7 nM
